Data on one molecule can be found in patent US20260092036A1, “CRYSTALLINE SALTS OF A T-TYPE CALCIUM CHANNEL MODULATOR AND METHODS OF USE THEREOF” (Praxis Precision Medicines, Inc., priority 2023, published 2026).

What is called solubility is the concentration that dissolves in the medium under given conditions.

Type in all cases: physicochemical
Series [1] can be described thus: Dynamic Vapor Sorption (DVS) on Pattern D.
Series [2] can be described thus: Solid form stability on heating (XRPD, hot stage microscopy). To be noted: hydrochloride salt trihydrate. On the procedure: Amorphous material was generated through ball milling in the experiments with the goal to obtain a new crystalline form. […] Pattern D was determined to be a channel trihydrate, the form identification was confirmed by Single Crystal XRD.
FIG. 5 is an overlay of XRPD spectra of Pattern D heated to 90° C. and cooled back to room temperature; Pattern D heated to 150° C. and cooled back to room temperature; as well as Pattern C and Pattern D reference spectra.
FIG. 6 is an image of Pattern D heated to different temperatures obtained using hot stage microscopy (HSM).

Series [3] can be described thus: Water solubility of crystalline forms measured by HPLC. On the procedure:
Water solubility of Pattern D was measured by HPLC to determine how much the water solubility drops between Pattern C and Pattern D. To measure the solubility of Pattern D in H2O, ˜150 mg of Pattern D was slurried for 2 weeks at RT in 1 mL of H2O.

For `CC(C)(C)NC(=O)CN1CCC(CNC(=O)c2cc(F)cc(Cl)c2)CC1.Cl` [Pattern D, N-((1-(2-(tert-butylamino)-2-oxoethyl)piperidin-4-yl)methyl)-3-chloro-5-fluorobenzamide hydrochloride salt trihydrate], in series [1] (at 80% RH), the “mass gained in DVS” value is on record as around 10.45%. The “water re-adsorbed after desolvation in DVS” value in series [1] (by RH of 20%, after loss of moisture at RH close to 0) is “approximately 10.5%”. Further, the “form change post DVS (XRPD)” value in series [1] (post DVS) is “no clear form change”. Moreover, the “form conversion on heating (XRPD)” value in series [2] (heated to 90° C. and cooled back to room temperature) is “no form conversion”. Further, the “form on further heating (XRPD)” value in series [2] (heated to 150° C. and cooled back to room temperature) is listed as “turns amorphous”. For the same molecule, the “form conversion after slurry in H2O (XRPD)” value in series [3] (2-week slurry in H2O at RT) is “no form conversion”. For the same molecule, the solubility at 2 weeks in series [3] (water, thermodynamic from solid) came out at 77.2 mg/mL.
